Assay results as given in ChEMBL document CHEMBL2163215, “Mitigating hERG Inhibition: Design of Orally Bioavailable CCR5 Antagonists as Potent Inhibitors of R5 HIV-1 Replication” (ACS Med Chem Lett, 2012).
Active and inactive are the calls of the source. No cut-off for these calls is given here.

Experiments:
[1] = Cytotoxicity against human PBMC
hERG (KCNH2) = hERG (KCNH2) (Homo sapiens, UniProt Q12809); assay: Inhibition of human recombinant hERG expressed in CHO cells at 10 uM by automated patch clamp assay; conditions: CHO cells expressing human recombinant hERG
hERG (KCNH2), sequence (Q12809 whole entry): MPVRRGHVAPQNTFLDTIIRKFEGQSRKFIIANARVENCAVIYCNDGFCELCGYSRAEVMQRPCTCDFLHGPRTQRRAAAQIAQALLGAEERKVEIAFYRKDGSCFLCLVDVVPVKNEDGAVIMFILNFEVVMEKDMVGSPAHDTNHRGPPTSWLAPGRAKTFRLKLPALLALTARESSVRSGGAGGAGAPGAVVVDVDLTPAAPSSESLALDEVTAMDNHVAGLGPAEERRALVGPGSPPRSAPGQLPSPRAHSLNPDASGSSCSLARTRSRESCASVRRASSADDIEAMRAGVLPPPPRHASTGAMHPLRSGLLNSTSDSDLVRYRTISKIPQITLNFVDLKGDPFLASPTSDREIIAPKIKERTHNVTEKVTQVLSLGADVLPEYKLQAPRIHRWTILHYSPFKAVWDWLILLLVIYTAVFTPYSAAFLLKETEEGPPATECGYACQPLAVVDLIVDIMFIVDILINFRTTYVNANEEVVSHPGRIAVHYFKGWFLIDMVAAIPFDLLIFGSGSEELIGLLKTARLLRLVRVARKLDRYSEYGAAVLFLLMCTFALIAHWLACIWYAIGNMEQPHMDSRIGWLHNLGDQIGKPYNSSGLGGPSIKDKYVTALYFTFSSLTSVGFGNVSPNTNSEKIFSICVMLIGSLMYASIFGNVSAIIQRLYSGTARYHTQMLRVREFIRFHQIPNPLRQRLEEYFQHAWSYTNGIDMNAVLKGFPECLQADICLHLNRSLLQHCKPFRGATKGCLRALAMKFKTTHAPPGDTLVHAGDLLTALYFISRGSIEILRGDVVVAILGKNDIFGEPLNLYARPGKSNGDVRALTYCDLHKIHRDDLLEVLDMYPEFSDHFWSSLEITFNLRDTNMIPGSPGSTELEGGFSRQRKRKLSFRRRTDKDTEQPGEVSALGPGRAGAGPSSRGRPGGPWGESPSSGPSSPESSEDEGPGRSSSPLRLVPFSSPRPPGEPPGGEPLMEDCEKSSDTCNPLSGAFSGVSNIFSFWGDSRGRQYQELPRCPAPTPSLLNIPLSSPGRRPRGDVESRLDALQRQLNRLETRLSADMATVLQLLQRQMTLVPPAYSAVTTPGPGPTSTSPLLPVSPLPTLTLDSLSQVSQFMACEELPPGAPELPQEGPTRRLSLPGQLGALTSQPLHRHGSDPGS

[2] = tested on: Human immunodeficiency virus 1; assay: Antiviral activity against R5 tropic HIV1 Ba-L infected human PBMC assessed as inhibition of viral replication by p-24 antigen specific ELISA; type: functional, organism-based; conditions: Human immunodeficiency virus 1, Ba-L
Plasma = assay: (§1) Fraction unbound in human plasma after 5 hrs; conditions: 5 h
[3] = as §1
[4] = biological target: Voltage-gated inwardly rectifying potassium channel KCNH2 (Homo sapiens, UniProt Q12809); assay: Inhibition of human recombinant hERG expressed in CHO cells by automated patch clamp assay
Voltage-gated inwardly rectifying potassium channel KCNH2, sequence (Q12809 whole entry): as above

in vivo [5] = conditions: dog, po
[6] = Volume of distribution in dog at 5 umol/kg, iv; conditions: in vivo
in vivo [7] = conditions: dog, po, 12.5 umol/kg
Description: Oral bioavailability in dog at 12.5 umol/kg

in vivo [8] = conditions: dog, plasma
[9] = Clearance in dog at 5 umol/kg, iv; conditions: in vivo
[10] = biological target: C-X-C chemokine receptor type 4 (Homo sapiens) (UniProt P61073); conditions: at 5 µM
C-X-C chemokine receptor type 4 (Homo sapiens), sequence (P61073 whole entry): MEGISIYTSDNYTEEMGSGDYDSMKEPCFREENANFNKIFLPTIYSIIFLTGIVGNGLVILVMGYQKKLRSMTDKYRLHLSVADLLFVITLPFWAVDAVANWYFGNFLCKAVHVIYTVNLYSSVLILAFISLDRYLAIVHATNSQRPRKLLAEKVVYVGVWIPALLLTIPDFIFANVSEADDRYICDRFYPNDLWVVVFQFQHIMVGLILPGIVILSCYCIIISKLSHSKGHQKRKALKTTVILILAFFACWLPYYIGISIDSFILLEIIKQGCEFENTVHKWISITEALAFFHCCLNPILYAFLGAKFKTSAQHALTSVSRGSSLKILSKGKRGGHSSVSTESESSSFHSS
Description: Antagonist activity at CXCR4 at 5 uM by calcium flux assay

[11] = biological target: T1, C-C chemokine receptor type 4 (Homo sapiens) (UniProt P51679); conditions: at 5 µM
T1 sequence (whole entry): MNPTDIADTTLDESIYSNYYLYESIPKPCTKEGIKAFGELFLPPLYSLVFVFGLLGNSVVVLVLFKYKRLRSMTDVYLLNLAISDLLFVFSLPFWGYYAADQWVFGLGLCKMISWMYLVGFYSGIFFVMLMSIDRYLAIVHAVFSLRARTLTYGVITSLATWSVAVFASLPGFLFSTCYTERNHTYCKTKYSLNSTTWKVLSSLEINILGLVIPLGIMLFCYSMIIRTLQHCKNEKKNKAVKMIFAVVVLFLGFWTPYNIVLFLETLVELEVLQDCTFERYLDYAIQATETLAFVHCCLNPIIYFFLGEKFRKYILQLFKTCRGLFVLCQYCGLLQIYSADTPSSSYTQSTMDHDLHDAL
Description: Antagonist activity at CCR4 at 5 uM by calcium flux assay

[12] = biological target: T2, C-C chemokine receptor type 1 (Homo sapiens) (UniProt P32246); conditions: at 5 µM
T2 sequence (whole entry): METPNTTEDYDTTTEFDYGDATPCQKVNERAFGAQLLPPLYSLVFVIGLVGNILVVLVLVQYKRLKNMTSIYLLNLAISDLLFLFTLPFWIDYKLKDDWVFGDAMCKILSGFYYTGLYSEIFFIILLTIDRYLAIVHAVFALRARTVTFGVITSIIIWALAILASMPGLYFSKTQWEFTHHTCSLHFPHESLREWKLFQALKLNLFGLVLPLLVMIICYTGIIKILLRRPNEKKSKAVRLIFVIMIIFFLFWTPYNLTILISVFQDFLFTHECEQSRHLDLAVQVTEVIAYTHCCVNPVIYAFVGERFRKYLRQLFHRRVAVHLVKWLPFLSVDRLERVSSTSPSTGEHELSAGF
Description: Antagonist activity at CCR1 at 5 uM by calcium flux assay

[13] = biological target: T3, C-X-C chemokine receptor type 1 (Homo sapiens) (UniProt P25024); conditions: at 5 µM
T3 sequence (whole entry): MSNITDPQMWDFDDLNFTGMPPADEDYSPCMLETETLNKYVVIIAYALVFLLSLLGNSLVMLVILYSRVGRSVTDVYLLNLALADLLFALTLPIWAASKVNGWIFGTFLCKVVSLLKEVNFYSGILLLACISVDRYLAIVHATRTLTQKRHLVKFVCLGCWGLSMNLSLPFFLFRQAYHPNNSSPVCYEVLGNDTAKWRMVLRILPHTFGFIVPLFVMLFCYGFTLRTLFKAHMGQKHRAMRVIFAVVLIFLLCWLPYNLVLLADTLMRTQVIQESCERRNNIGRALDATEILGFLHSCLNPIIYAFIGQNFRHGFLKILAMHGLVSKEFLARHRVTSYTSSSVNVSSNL
Description: Antagonist activity at CXCR1 at 5 uM by calcium flux assay

[14] = biological target: T4, C-X-C chemokine receptor type 2 (Homo sapiens) (UniProt P25025); conditions: at 5 µM
T4 sequence (whole entry): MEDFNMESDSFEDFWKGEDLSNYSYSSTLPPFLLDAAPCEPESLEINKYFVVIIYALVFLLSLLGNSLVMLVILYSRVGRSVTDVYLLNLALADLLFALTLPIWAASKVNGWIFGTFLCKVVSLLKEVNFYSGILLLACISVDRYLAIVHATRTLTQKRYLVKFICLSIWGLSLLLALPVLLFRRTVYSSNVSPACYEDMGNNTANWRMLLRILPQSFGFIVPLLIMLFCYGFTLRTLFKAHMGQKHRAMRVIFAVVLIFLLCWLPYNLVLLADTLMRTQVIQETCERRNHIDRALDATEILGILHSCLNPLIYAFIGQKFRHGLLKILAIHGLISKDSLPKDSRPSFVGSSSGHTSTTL
Description: Antagonist activity at CXCR2 at 5 uM by calcium flux assay

[15] = biological target: C-C chemokine receptor type 2 (Homo sapiens) (UniProt P41597); conditions: at 5 µM
C-C chemokine receptor type 2 (Homo sapiens), sequence (P41597 whole entry, looked up): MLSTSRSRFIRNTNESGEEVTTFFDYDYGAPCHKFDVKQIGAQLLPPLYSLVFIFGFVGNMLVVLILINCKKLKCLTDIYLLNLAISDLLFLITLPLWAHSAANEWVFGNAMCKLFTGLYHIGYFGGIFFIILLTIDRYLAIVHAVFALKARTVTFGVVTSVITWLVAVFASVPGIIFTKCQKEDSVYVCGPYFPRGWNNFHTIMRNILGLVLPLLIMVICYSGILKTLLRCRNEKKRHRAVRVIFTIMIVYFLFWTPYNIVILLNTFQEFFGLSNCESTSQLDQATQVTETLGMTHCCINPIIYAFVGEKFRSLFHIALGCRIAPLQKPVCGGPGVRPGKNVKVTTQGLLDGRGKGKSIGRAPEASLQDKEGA
Description: Antagonist activity at CCR2b at 5 uM by calcium flux assay

[16] = Cardiotoxicity in dog purkinje fiber assessed as change in action potential amplitude at 10 uM measured at basic cycle length of 1 second
[17] = Cardiotoxicity in dog purkinje fiber assessed as change in resting membrane potential at 10 uM measured at basic cycle length of 0.5 seconds
[18] = Cardiotoxicity in dog purkinje fiber assessed as change in resting membrane potential at 10 uM measured at basic cycle length of 2 seconds
[19] = Cardiotoxicity in dog purkinje fiber assessed as change in action potential amplitude at 10 uM measured at basic cycle length of 2 seconds
[20] = Cardiotoxicity in dog purkinje fiber assessed as change in action potential duration at 60% at 10 uM measured at basic cycle length of 2 seconds
[21] = Cardiotoxicity in dog purkinje fiber assessed as change in action potential duration at 90% at 10 uM measured at basic cycle length of 2 seconds
[22] = Cardiotoxicity in dog purkinje fiber assessed as change in action potential duration at 90% at 10 uM measured at basic cycle length of 1 second
[23] = Cardiotoxicity in dog purkinje fiber assessed as change in resting membrane potential at 10 uM measured at basic cycle length of 1 second
[24] = Toxicity in rat administered for 7 days; conditions: in vivo
[25] = Cardiotoxicity in dog purkinje fiber assessed as change in action potential amplitude at 10 uM measured at basic cycle length of 0.5 seconds
[26] = Cardiotoxicity in dog purkinje fiber assessed as change in action potential duration at 90% at 10 uM measured at basic cycle length of 0.5 seconds
[27] = Cardiotoxicity in dog purkinje fiber assessed as change in action potential duration at 60% at 10 uM measured at basic cycle length of 1 second
[28] = Cardiotoxicity in dog purkinje fiber assessed as change in action potential duration at 60% at 10 uM measured at basic cycle length of 0.5 seconds
[29] = Half life in dog at 5 umol/kg, iv; conditions: in vivo

COc1ccc(N(Cc2cnccc2C)C2CCN([C@H](C)CCNC(=O)c3c(C)ncnc3C)CC2)cc1
CC50 [1]: > 38300 nM
inhibition at 10 µM (hERG (KCNH2)): 58%
IC50 [2]: 1830 nM
Fu (Plasma): 83%

CNC(=O)N(Cc1ccsc1)C1CCN([C@H](C)CCNC(=O)c2c(C)cc(Cl)nc2C)CC1
CC50 [1]: > 40600 nM
inhibition at 10 µM (hERG (KCNH2)): 73%
IC50 [2]: 15.5 nM
fraction unbound at 5 h [3]: 0.46
IC50 [4]: 1600 nM

CONC(=O)N(Cc1ccsc1)C1CCN([C@H](C)CCNC(=O)c2c(C)cc(C#N)nc2Cl)CC1
CC50 [1]: > 38500 nM
IC50 [2]: 2.9 nM
fraction unbound at 5 h [3]: 0.75
Cmax (in vivo [5]): 1940 nM
Vd [6]: 6.3 L/kg
bioavailability (in vivo [7]): 60%
AUC(0-inf) (in vivo [8]): 3.24 µM·h
clearance [9]: 39.2 mL/min/kg

CC(=O)N(Cc1ccsc1)C1CCN([C@H](C)CCNC(=O)c2c(C)cc(Cl)nc2C)CC1
IC50 [2]: 138 nM

COc1ccc(N(Cc2ccsc2)C2CCN([C@H](C)CCNC(=O)c3c(C)ncnc3C)CC2)cc1
CC50 [1]: > 38700 nM
inhibition at 10 µM (hERG (KCNH2)): 97%
IC50 [2]: 65.9 nM
fraction unbound at 5 h [3]: 0.91

Cc1cc(Cl)nc(C)c1C(=O)NCC[C@@H](C)N1CCC(N(Cc2ccsc2)C(=O)Nc2cccnc2)CC1
CC50 [1]: > 32400 nM
inhibition at 10 µM (hERG (KCNH2)): 20%
IC50 [2]: 34.4 nM
fraction unbound at 5 h [3]: 0.46

Cc1cc(C#N)nc(C)c1C(=O)NCC[C@@H](C)N1CCC(N(Cc2ccsc2)C(=O)CC2CCOCC2)CC1
CC50 [1]: > 36200 nM
inhibition at 10 µM (hERG (KCNH2)): 61%
IC50 [2]: 16.1 nM
fraction unbound at 5 h [3]: 0.85

Cc1cc(Cl)nc(C)c1C(=O)NCC[C@@H](C)N1CCC(N(Cc2ccsc2)C(=O)NO)CC1
CC50 [1]: > 38500 nM
inhibition at 10 µM (hERG (KCNH2)): 44%
IC50 [2]: 344 nM
fraction unbound at 5 h [3]: 0.4

COCC(=O)N(Cc1ccsc1)C1CCN([C@H](C)CCNC(=O)c2c(C)cc(Cl)nc2C)CC1
IC50 [2]: 38 nM
inhibition [10]: inactive
inhibition [11]: inactive
inhibition [12]: inactive
inhibition [13]: inactive
inhibition [14]: inactive
inhibition [15]: inactive

COCCONC(=O)N(Cc1ccsc1)C1CCN([C@H](C)CCNC(=O)c2c(C)cc(Cl)nc2C)CC1
CC50 [1]: > 34400 nM
Activity [16]: 1.3 mV
IC50 [2]: 21.3 nM
Activity [17]: -3.6 mV
inhibition [10]: inactive
Activity [18]: -2.7 mV
fraction unbound at 5 h [3]: 0.43
Activity [19]: 2.4 mV
inhibition [11]: inactive
inhibition [12]: inactive
inhibition [13]: inactive
Activity [20]: 24.2%
Activity [21]: 22.6%
Activity [22]: 16.5%
inhibition [14]: inactive
Activity [23]: -2.8 mV
NOAEL at 168 h [24]: ≥ 400 mg/kg
inhibition [15]: inactive
Activity [25]: 1.2 mV
Activity [26]: 10.5%
Activity [27]: 18.1%
Activity [28]: 12.2%

CONC(=O)N(Cc1ccsc1)C1CCN([C@H](C)CCNC(=O)c2c(C)cc(C(=O)NC(C)C)nc2C)CC1
IC50 [2]: 4.8 nM
inhibition [10]: inactive
inhibition [11]: inactive
inhibition [12]: inactive
inhibition [13]: inactive
inhibition [14]: inactive
inhibition [15]: inactive

Cc1cc(Cl)nc(C)c1C(=O)NCC[C@@H](C)N1CCC(N(Cc2ccsc2)C(=O)CC2CCOCC2)CC1
CC50 [1]: > 35600 nM
inhibition at 10 µM (hERG (KCNH2)): 67%
IC50 [2]: 22.5 nM
fraction unbound at 5 h [3]: 0.8

CONC(=O)N(Cc1ccsc1)C1CCN([C@H](C)CCNC(=O)c2c(C)cc(Cl)[n+]([O-])c2Cl)CC1
CC50 [1]: > 38500 nM
inhibition at 10 µM (hERG (KCNH2)): 21%
IC50 [2]: 7.3 nM
fraction unbound at 5 h [3]: 0.31
Cmax (in vivo [5]): 260 nM
half-life [29]: 42 min
Vd [6]: 2.6 L/kg
bioavailability (in vivo [7]): 7%
AUC(0-inf) (in vivo [8]): 0.37 µM·h
clearance [9]: 40.3 mL/min/kg

CONC(=O)N(Cc1ccsc1)C1CCN([C@H](C)CCNC(=O)c2c(C)cc(Cl)nc2C)CC1
IC50 [2]: 14.8 nM
inhibition [10]: inactive
inhibition [11]: inactive
inhibition [12]: inactive
inhibition [13]: inactive
inhibition [14]: inactive
inhibition [15]: inactive
